The results in this text go back to patent US7605272B2, “IGF-1R inhibitor” (Kyowa Hakko Kirin Co., Ltd., priority 2005, dated 2009).

One experiment deals with T1, IGF-1R (Homo sapiens, UniProt P08069).
T1 construct: purchased Upstate Co. 14-465
As to the kind of experiment: IGF-1R inhibitory activity (kinase reaction, time-resolved fluoroimmunoassay). As to conditions: IGF-1R active recombinant enzyme, test compound 10 μmol/L. It counts as biochemical. The method, boiled down:
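Compounds were tested at a single 10 μmol/L concentration. Each was incubated with recombinant IGF-1R (200 μg/L), 10 mmol/L ATP, MgCl2/MnCl2 and Na3VO4 (pH 7.5) on immobilized poly(Glu-Tyr) peptide for 30 min at 24° C. Eu-anti-phosphotyrosine time-resolved fluorescence (340/615 nm) gave relative activity against no-compound and no-enzyme wells, reported as % inhibition.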

For the next experiment, the system named is NCI-H929. As to the kind of experiment: Cytostatic activity on human multiple myeloma cell line NCI-H929 (WST-1). It counts as cell-based. The settings on record: 10 μmol/L, 72 hours; for inhibition at 10 µM: Homo sapiens, NCI-H929, 72 h, read-out: cytostatic rate (%) H929 (10 μmol/L). Put shortly: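 Cells pre-cultured 24 h at 37 °C, 5% CO2, then exposed 72 h to compound at final 1 or 10 μmol/L (0.1% DMSO). WST-1 added for 2 h, absorbance at 450 nm (ref 690 nm). Cytostatic rate = 100 minus relative growth, with DMSO control as 100% and blank as 0%.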

Another experiment relates to KMS-11. As to the kind of experiment: Cytostatic activity on human multiple myeloma cell line KMS-11 (WST-1). The settings on record: 10 μmol/L, 72 hours; for inhibition at 10 µM: Homo sapiens, KMS-11, 72 h, read-out: cytostatic rate (%) KMS-11 (10 μmol/L). It counts as cell-based. How it is done: The cytostatic rates of a test compound on human multiple myeloma cell lines NCI-H929 and KMS-11, were determined in the following manner.
For culturing NCI-H929, Roswell Park Memorial Institute's Medium (RPMI) 1640 (Gibco, Catalog No. 11875-093) containing 15% fetal bovine serum (Gibco, Catalog No. 10099-141), 1 mmol/L sodium pyruvate (Gibco, Catalog No. 11360-070), 10 mmol/L HEPES (Gibco, Catalog No. 15630-80), 4.5 g/L glucose (Sigma, Catalog No. G8769), 0.05 mmol/L 2-mercaptethanol (Nacalai Tesque, Catalog No. 21418-42) and penicillin/streptomycin (1:1) (Gibco, Catalog No. 15140-122) was used. For culturing KMS-11 cell, RPMI 1640 medium containing 10% fetal bovine serum and penicillin/streptomycin (1:1) was used. Each 80 μL of the NCI-H929 cell having a concentration of 1×10^5 cells/mL (or the KMS-11 cell having a concentration of 7.5×10^4 cells/mL) was inoculated to wells of a TC MICROWELL 96U plate (Nalge Nunc International, Catalog No. 163320) and was cultured in a 5% carbon dioxide gas incubator at 37° C. for 24 hours. Each 20 μL of a solution of the test compound in dimethyl sulfoxide (DMSO) which was prepared to make the final concentration to 1 μmol/L or 10 μmol/L, was added to each well. Each 20 μL of DMSO was added to the control well and the blank well to a final concentration of 0.1%. After adding the test compound, the cells were incubated in a 5% carbon dioxide gas incubator at 37° C. for 72 hours except for the blank well. After adding 20 μL of WST-1 reagent {4-[3-(4-iodophenyl)-2-(4-nitrophenyl)-2H-5-tetrazolio]-1,3-benzene disulfonate sodium salt} (Roche Diagnostics K.K., Catalog No. 1644807), which was diluted to 50% by RPMI medium to each well, the cells were further incubated at 37° C. for 2 hours. Then, the absorbances at 450 nm (reference wavelength: 690 nm) were measured with a microplate spectrophotometer SPECTRA max 340PC (Molecular Devices Corporation). The relative growth (%) of a well to which the test compound had been added and cultured for 72 hours was determined while setting the absorbance of a well to which not the test compound but DMSO alone had been added and cultured for 72 hours (control) as 100% and that of a well where the drugs are added (blank) as 0%. The cytostatic rate (%) of the test compound was determined by subtracting the calculated relative growth from 100.

T1 sequence (P08069 959-1367 limits assumed): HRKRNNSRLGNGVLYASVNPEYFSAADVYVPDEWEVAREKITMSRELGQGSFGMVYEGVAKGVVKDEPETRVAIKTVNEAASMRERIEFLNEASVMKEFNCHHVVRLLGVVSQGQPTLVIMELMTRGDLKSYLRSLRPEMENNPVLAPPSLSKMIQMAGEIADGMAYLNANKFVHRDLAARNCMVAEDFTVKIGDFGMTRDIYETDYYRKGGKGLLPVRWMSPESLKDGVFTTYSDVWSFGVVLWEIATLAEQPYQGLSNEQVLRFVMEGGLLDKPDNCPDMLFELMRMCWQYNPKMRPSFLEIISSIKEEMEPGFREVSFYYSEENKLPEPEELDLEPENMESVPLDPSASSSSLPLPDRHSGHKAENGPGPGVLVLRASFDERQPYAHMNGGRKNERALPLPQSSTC

As for `CCC(O)(CC)C(=O)Nc1ccccc1/C=C/c1n[nH]c2ccccc12` [Compound 45, (E)-2-ethyl-2-hydroxy-N-{2-[2-(1H-indazol-3-yl)vinyl]phenyl}butylamide], the “inhibitory activity (%) at 10 μmol/L” value at IGF-1R is recorded as 97.4%. Also, in the experiment with NCI-H929, the “cytostatic rate (%) H929 (10 μmol/L)” value is recorded as 115.0%. Besides, the “cytostatic rate (%) KMS-11 (10 μmol/L)” value with KMS-11 was determined as 98.3%.

Turning to `O=C(Nc1ccccc1)c1ccccc1/C=C/c1n[nH]c2ccccc12` [Compound 47, (E)-N-phenyl-2-[2-(1H-indazol-3-yl)vinyl]benzamide], the values for the inhibition at 10 µM at IGF-1R, in the experiment on NCI-H929 and in the experiment with KMS-11 were 90.1%, 100% and 92.1%, respectively.

Turning to `Nc1ccn(C(=O)c2ccccc2/C=C/c2n[nH]c3ccccc23)n1` [Compound 48, (E)-3-amino-1-{2-[2-(1H-indazol-3-yl)vinyl]benzoyl}pyrazole], the figures for the inhibition at 10 µM at IGF-1R, in the experiment with NCI-H929 and in the experiment with KMS-11 were 99.3%, 111% and 90.1%, respectively.

As for `Cn1cc([N+](=O)[O-])cc1C(=O)Nc1ccccc1/C=C/c1n[nH]c2ccccc12` [Compound 52, (E)-N-{2-[2-(1H-indazol-3-yl)vinyl]phenyl}-1-methyl-4-nitro-1H-pyrrole-2-carboxamide], the inhibition at 10 µM at IGF-1R is 98.5%; in the experiment with NCI-H929, 119%; in the experiment on KMS-11 it was 128%.

With `COc1cscc1C(=O)Nc1ccccc1/C=C/c1n[nH]c2ccccc12` [Compound 53, (E)-N-{2-[2-(1H-indazol-3-yl)vinyl]phenyl}-4-methoxythiophene-3-carboxamide], the inhibition at 10 µM at IGF-1R worked out at 98.9%; in the experiment with NCI-H929, 114%; in the experiment with KMS-11, 126%.

In the case of `O=C(Nc1ccccc1/C=C/c1n[nH]c2ccccc12)c1sccc1Cl` [Compound 54, (E)-3-chloro-N-{2-[2-(1H-indazol-3-yl)vinyl]phenyl}thiophene-2-carboxamide], the inhibition at 10 µM amounted to 96.7% at IGF-1R, 118% in the experiment on NCI-H929 and 126% in the experiment with KMS-11.

As to `Cn1c(C(=O)Nc2ccccc2/C=C/c2n[nH]c3ccccc23)cc2ccccc21` [Compound 55, (E)-N-{2-[2-(1H-indazol-3-yl)vinyl]phenyl}-1-methyl-1H-indole-2-carboxamide], the inhibition at 10 µM came to 98.9% on IGF-1R, 115% in the experiment on NCI-H929 and 132% in the experiment on KMS-11.

Turning to `Nc1ccc(C(=O)Nc2ccccc2/C=C/c2n[nH]c3ccccc23)s1` [Compound 56, (E)-5-amino-N-{2-[2-(1H-indazol-3-yl)vinyl]phenyl}thiophene-2-carboxamide], the inhibition at 10 µM came to 99.3% on IGF-1R, 116% in the experiment with NCI-H929 and 134% with KMS-11.

For `O=C(Nc1ccccc1/C=C/c1n[nH]c2ccccc12)c1cc2sccc2s1` [Compound 57, (E)-N-{2-[2-(1H-indazol-3-yl)vinyl]phenyl}thieno[3,2-b]thiophene-2-carboxamide], the inhibition at 10 µM on IGF-1R was 98.3%; in the experiment on NCI-H929, 117%; with KMS-11, 141%.

For the compound `Cc1c(C(=O)Nc2ccccc2/C=C/c2n[nH]c3ccccc23)sc2ccc(Cl)cc12` [Compound 58, (E)-5-chloro-N-{2-[2-(1H-indazol-3-yl)vinyl]phenyl}-3-methylbenzo[b]thiophene-2-carboxamide], the inhibition at 10 µM at IGF-1R stood at 86%; in the experiment with NCI-H929, 69.8%; in the experiment on KMS-11 it was 119%.

For the compound `Cc1cc(C(=O)Nc2ccccc2/C=C/c2n[nH]c3ccccc23)c(C(F)(F)F)o1` [Compound 59, (E)-N-{2-[2-(1H-indazol-3-yl)vinyl]phenyl}-5-methyl-2-trifluoromethylfuran-3-carboxamide], the results for the inhibition at 10 µM on IGF-1R, with NCI-H929 and in the experiment with KMS-11 were 86.3%, 110% and 106%, respectively.

Take `O=S(=O)(Nc1ccccc1/C=C/c1n[nH]c2ccccc12)c1cccs1` [Compound 60, (E)-N-{2-[2-(1H-indazol-3-yl)vinyl]phenyl}thiophene-2-sulfonamide]: the inhibition at 10 µM on IGF-1R was determined as 77.4%; with NCI-H929, 63.9%; with KMS-11, 103%.

Take `O=C(Nc1ccccc1/C=C/c1n[nH]c2ccccc12)c1ccc([N+](=O)[O-])o1` [Compound 63, (E)-N-{2-[2-(1H-indazol-3-yl)vinyl]phenyl}-5-nitrofuran-2-carboxamide]: the inhibition at 10 µM came to 99.2% at IGF-1R, 109% in the experiment with NCI-H929 and 125% with KMS-11.

As for `O=C(Nc1ccccc1/C=C/c1n[nH]c2ccccc12)c1cccc([N+](=O)[O-])c1` [Compound 64, (E)-N-{2-[2-(1H-indazol-3-yl)vinyl]phenyl}-3-nitrobenzamide], the inhibition at 10 µM stood at 97% at IGF-1R, 108% in the experiment on NCI-H929 and 124% in the experiment on KMS-11.

On to `O=C(Nc1ccccc1/C=C/c1n[nH]c2ccccc12)c1ccc([N+](=O)[O-])cc1` [Compound 65, (E)-N-{2-[2-(1H-indazol-3-yl)vinyl]phenyl}-4-nitrobenzamide], for which the inhibition at 10 µM came to 97.9% at IGF-1R, 109% in the experiment on NCI-H929 and 120% in the experiment on KMS-11.

As for `Cc1cc([N+](=O)[O-])sc1C(=O)Nc1ccccc1/C=C/c1n[nH]c2ccccc12` [Compound 66, (E)-N-{2-[2-(1H-indazol-3-yl)vinyl]phenyl}-3-methyl-5-nitrothiophene-2-carboxamide], the inhibition at 10 µM at IGF-1R turned out to be 93.6%; in the experiment on NCI-H929 it was 111%; in the experiment with KMS-11 it was 114%.

For `Cc1cc(N)sc1C(=O)Nc1ccccc1/C=C/c1n[nH]c2ccccc12` [Compound 67, (E)-5-amino-N-{2-[2-(1H-indazol-3-yl)vinyl]phenyl}-3-methylthiophene-2-carboxamide], the inhibition at 10 µM at IGF-1R amounted to 95.6%; with NCI-H929 it was 119%; in the experiment with KMS-11 it was 100%.

On to `CC(=O)Nc1ccc(C(=O)Nc2ccccc2/C=C/c2n[nH]c3ccccc23)s1` [Compound 68, (E)-5-acetylamino-N-{2-[2-(1H-indazol-3-yl)vinyl]phenyl}thiophene-2-carboxamide], for which the inhibition at 10 µM came to 97.4% on IGF-1R, 114% with NCI-H929 and 112% in the experiment on KMS-11.

As to `Nc1cccc(C(=O)Nc2ccccc2/C=C/c2n[nH]c3ccccc23)c1` [Compound 69, (E)-3-amino-N-{2-[2-(1H-indazol-3-yl)vinyl]phenyl}benzamide], the inhibition at 10 µM on IGF-1R stood at 101%; in the experiment on NCI-H929, 116%; with KMS-11 it was 114%.

As to `Nc1ccc(C(=O)Nc2ccccc2/C=C/c2n[nH]c3ccccc23)cc1` [Compound 70, (E)-4-amino-N-{2-[2-(1H-indazol-3-yl)vinyl]phenyl}benzamide], the values for the inhibition at 10 µM at IGF-1R, with NCI-H929 and in the experiment on KMS-11 were 101%, 115% and 113%, respectively.

For the compound `Cc1nnsc1C(=O)Nc1ccccc1/C=C/c1n[nH]c2ccccc12` [Compound 71, (E)-N-{2-[2-(1H-indazol-3-yl)vinyl]phenyl}-4-methyl-[1,2,3]thiadiazole-5-carboxamide], the inhibition at 10 µM is 99.4% at IGF-1R, 115% in the experiment with NCI-H929 and 114% in the experiment on KMS-11.

As for `Cn1cccc1CC(=O)Nc1ccccc1/C=C/c1n[nH]c2ccccc12` [Compound 73, (E)-N-{2-[2-(1H-indazol-3-yl)vinyl]phenyl}-2-(1-methyl-1H-pyrrole-2-yl)acetamide], the figures for the inhibition at 10 µM on IGF-1R, in the experiment on NCI-H929 and in the experiment with KMS-11 were 88%, 80% and 90.4%, respectively.
